Data: patent US20160159816A1, “SUBSTITUTED THIENOPYRIMIDINES AND PHARMACEUTICAL USE THEREOF” (BAYER PHARMA AKTIENGESELLSCHAFT, priority 2013, published 2016)
pIC50: −log10 of the molar value.

Each molecule was assayed against T1, human full-length MKNK1 (Homo sapiens, UniProt Q9BUB5, T385D) (assay: MKNK1 kinase high ATP assay (TR-FRET)). Conditions: high ATP (2 mM), after preincubation with MKNK1; compounds of the present invention (Table 1a).
T1 construct: GST (N); purchased Carna Biosciences 02-145; host or cells: insect cells, baculovirus expression system
Assay type: biochemical
Method: MKNK1-inhibitory activity at high ATP of compounds of the present invention after their preincubation with MKNK1 was quantified employing the TR-FRET-based MKNK1 high ATP assay as described in the following paragraphs.
A recombinant fusion protein of Glutathione-S-Transferase (GST, N-terminally) and human full-length MKNK1 (amino acids 1-424 and T344D of accession number BAA 19885.1), expressed in insect cells using baculovirus expression system and purified via glutathione sepharose affinity chromatography, was purchased from Carna Biosciences (product no 02-145) and used as enzyme. As substrate for the kinase reaction the biotinylated peptide biotin-Ahx-IKKRKLTRRKSLKG (C-terminus in amide form) was used, which can be purchased e.g. from the company Biosyntan (Berlin-Buch, Germany).
For the assay 50 nL of a 100 fold concentrated solution of the test compound in DMSO was pipetted into a black low volume 384 well microtiter plate (Greiner Bio-One, Frickenhausen, Germany), 2 μL of a solution of MKNK1 in aqueous assay buffer [50 mM HEPES pH 7.5, 5 mM MgCl2, 1.0 mM dithiothreitol, 0.005% (v/v) Nonidet-P40 (Sigma)] was added and the mixture was incubated for 15 min at 22° C. to allow pre-binding of the test compounds to the enzyme before the start of the kinase reaction. Then the kinase reaction was started by the addition of 3 μL of a solution of adenosine-tri-phosphate (ATP, 3.3 mM=>final conc. in the 5 μL assay volume is 2 mM) and substrate (0.1 μM=>final conc. in the 5 μL assay volume is 0.06 μM) in assay buffer and the resulting mixture was incubated for a reaction time of 30 min at 22° C. The concentration of MKNK1 was adjusted depending of the activity of the enzyme lot and was chosen appropriate to have the assay in the linear range, typical concentrations were in the range of 0.003 μg/mL. The reaction was stopped by the addition of 5 μL of a solution of TR-FRET detection reagents (5 nM streptavidine-XL665 [Cisbio Bioassays, Codolet, France] and 1 nM anti-ribosomal protein […] (pSer236)-antibody from Invitrogen [#44921G] and 1 nM LANCE EU-W1024 labeled ProteinG [Perkin-Elmer, product no. AD0071]) in an aqueous EDTA-solution (100 mM EDTA, 0.1% (w/v) bovine serum albumin in 50 mM HEPES pH 7.5).
The resulting mixture was incubated for 1 h at 22° C. to allow the formation of complex between the phosphorylated biotinylated peptide and the detection reagents. Subsequently the amount of phosphorylated substrate was evaluated by measurement of the resonance energy transfer from the Eu-chelate to the streptavidine-XL. Therefore, the fluorescence emissions at 620 nm and 665 nm after excitation at 350 nm were measured in a TR-FRET reader, e.g. a Rubystar (BMG Labtechnologies, Offenburg, Germany) or a Viewlux (Perkin-Elmer). The ratio of the emissions at 665 nm and at […] was taken as the measure for the amount of phosphorylated substrate. The data were normalised (enzyme reaction without inhibitor=0% inhibition, all other assay components but no enzyme=100% inhibition). […] Table 1a lists MKNK1 high ATP IC50 values of some compounds of the present invention.

T1 sequence (Q9BUB5 1-424 isoform Q9BUB5-2 T344D): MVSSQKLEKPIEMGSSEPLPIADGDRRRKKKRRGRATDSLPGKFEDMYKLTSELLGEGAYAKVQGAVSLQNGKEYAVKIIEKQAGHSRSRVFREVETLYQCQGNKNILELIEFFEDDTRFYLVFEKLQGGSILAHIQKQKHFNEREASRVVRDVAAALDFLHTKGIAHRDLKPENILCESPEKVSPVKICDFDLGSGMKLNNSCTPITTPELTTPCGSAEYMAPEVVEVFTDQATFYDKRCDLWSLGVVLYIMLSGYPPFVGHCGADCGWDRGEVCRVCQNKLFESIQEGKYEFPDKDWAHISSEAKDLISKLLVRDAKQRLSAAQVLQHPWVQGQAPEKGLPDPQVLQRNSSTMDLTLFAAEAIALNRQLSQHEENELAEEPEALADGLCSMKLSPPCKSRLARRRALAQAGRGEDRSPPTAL

SMILES	pIC50
COCC1(OC)CCc2c(sc3ncnc(Nc4cc5cn[nH]c5cc4F)c23)C1 (single isomer, unassigned) [Example 44, (7R) or (7S) N-(6-Fluoro-1H-indazol-5-yl)-7-methoxy-7-(methoxymethyl)-5,6,7,8-tetrahydro[1]benzothieno[2,3-d]pyrimidin-4-amine]	7.13
Cc1cc2[nH]ncc2cc1Nc1ncnc2sc3c(c12)CCC(C)C3 (racemic) [Example 25, (RS)-7-Methyl-N-(6-methyl-1H-indazol-5-yl)-5,6,7,8-tetrahydro[1]benzothieno[2,3-d]pyrimidin-4-amine]	6.91
[N-]=[N+]=NCC1CCc2c(sc3ncnc(Nc4ccc5[nH]ncc5c4)c23)C1 (racemic) [Example 6, (RS)-7-(Azidomethyl)-N-(1H-indazol-5-yl)-5,6,7,8-tetrahydro[1]benzothieno[2,3-d]pyrimidin-4-amine]	6.91
CC1CCc2c(sc3ncnc(Nc4cc5cn[nH]c5cc4F)c23)C1 (racemic) [Example 28, (RS)—N-(6-Fluoro-1H-indazol-5-yl)-7-methyl-5,6,7,8-tetrahydro[1]benzothieno[2,3-d]pyrimidin-4-amine]	7.17
COc1cc2[nH]ncc2cc1Nc1ncnc2sc3c(c12)CC[C@@](C)(C(=O)N1CCOC[C@H]1C)C3 [Example 55, (7R) {4-[(6-Methoxy-1H-indazol-5-yl)amino]-7-methyl-5,6,7,8-tetrahydro[1]benzothieno[2,3-d]pyrimidin-7-yl}[(3R)-3-methylmorpholin-4-yl]methanone]	7.48
CN(C)C1CCc2c(sc3ncnc(Nc4ccc5[nH]ncc5c4)c23)C1 (racemic) [Example 35, (RS)—N^4-(1H-Indazol-5-yl)-N^7,N^7-dimethyl-5,6,7,8-tetrahydro[1]benzothieno[2,3-d]pyrimidine-4,7-diamine]	6.66
CC1CCc2c(sc3ncnc(Nc4cc5cn[nH]c5cc4Cl)c23)C1 (racemic) [Example 26, (RS)—N-(6-Chloro-1H-indazol-5-yl)-7-methyl-5,6,7,8-tetrahydro[1]benzothieno[2,3-d]pyrimidin-4-amine]	6.49
COCC1(OC)CCc2c(sc3ncnc(Nc4cc5cn[nH]c5cc4F)c23)C1 (racemic) [Example 30, (RS)—N-(6-Fluoro-1H-indazol-5-yl)-7-methoxy-7-(methoxymethyl)-5,6,7,8-tetrahydro[1]benzothieno[2,3-d]pyrimidin-4-amine]	7.05
OCC1CCc2c(sc3ncnc(Nc4ccc5[nH]ncc5c4)c23)C1 (racemic) [Example 1, (RS)-[4-(1H-Indazol-5-ylamino)-5,6,7,8-tetrahydro[1]benzothieno[2,3-d]pyrimidin-7-yl]methanol]	7.50
COCC1(OC)CCc2c(sc3ncnc(Nc4cc5cn[nH]c5cc4C)c23)C1 (racemic) [Example 29, (RS)-7-methoxy-7-(methoxymethyl)-N-(6-methyl-1H-indazol-5-yl)-5,6,7,8-tetrahydro[1]benzothieno[2,3-d]pyrimidin-4-amine]	6.01
COc1cc2[nH]ncc2cc1Nc1ncnc2sc3c(c12)CCC(C)C3 (racemic) [Example 27, (RS)—N-(6-Methoxy-1H-indazol-5-yl)-7-methyl-5,6,7,8-tetrahydro[1]benzothieno[2,3-d]pyrimidin-4-amine]	7.18
CC[C@@]1(C(=O)N(C)C)CCc2c(sc3ncnc(Nc4cc5cn[nH]c5cc4OC)c23)C1 [Example 50, (7R) 7-Ethyl-4-[(6-methoxy-1H-indazol-5-yl)amino]-N,N-dimethyl-5,6,7,8-tetrahydro[1]benzothieno[2,3-d]pyrimidine-7-carboxamide]	7.71

Now those with a higher pIC50, led by results:

pIC50	SMILES
8.32	COc1cc2[nH]ncc2cc1Nc1ncnc2sc3c(c12)CCC1(C3)OCCO1 [Example 24, N-(6-Methoxy-1H-indazol-5-yl)-5,8-dihydro-6H-spiro[1-benzothieno[2,3-d]pyrimidine-7,2′-[1,3]dioxolan]-4-amine]
8.40	COc1cc2[nH]ncc2cc1Nc1ncnc2sc3c(c12)CCC(CNC(=O)C(C)(C)O)C3 (racemic) [Example 22, (RS)-2-Hydroxy-N-({4-[(6-methoxy-1H-indazol-5-yl)amino]-5,6,7,8-tetrahydro[1]benzothieno[2,3-d]pyrimidin-7-yl}methyl)-2-methylpropanamide]
8.00	COCC1(OC)CCc2c(sc3ncnc(Nc4cc5cn[nH]c5cc4OC)c23)C1 (single isomer, unassigned) [Example 42, (7R) or (7S) 7-Methoxy-N-(6-methoxy-1H-indazol-5-yl)-7-(methoxymethyl)-5,6,7,8-tetrahydro[1]benzothieno[2,3-d]pyrimidin-4-amine]
7.73	c1nc(Nc2ccc3[nH]ncc3c2)c2c3c(sc2n1)CCCC3 [Example 3, N-(1H-Indazol-5-yl)-5,6,7,8-tetrahydro[1]benzothieno[2,3-d]pyrimidin-4-amine]
8.43	COc1cc2[nH]ncc2cc1Nc1ncnc2sc3c(c12)CC[C@](C)(C(=O)N1CCC1)C3 [Example 60, (7S) Azetidin-1-yl{(7S)-4-[(6-methoxy-1H-indazol-5-yl)amino]-7-methyl-5,6,7,8-tetrahydro[1]benzothieno[2,3-d]pyrimidin-7-yl}methanone]
7.90	COCC1(OC)CCc2c(sc3ncnc(Nc4cc5cn[nH]c5cc4OC)c23)C1 (single isomer, unassigned) [Example 43, (7S) or (7R) 7-Methoxy-N-(6-methoxy-1H-indazol-5-yl)-7-(methoxymethyl)-5,6,7,8-tetrahydro[1]benzothieno[2,3-d]pyrimidin-4-amine]
7.91	CC(C)(O)C(=O)NCC1CCc2c(sc3ncnc(Nc4ccc5[nH]ncc5c4)c23)C1 (racemic) [Example 13, (RS)-2-Hydroxy-N-{[4-(1H-indazol-5-ylamino)-5,6,7,8-tetrahydro[1]benzothieno[2,3-d]pyrimidin-7-yl]methyl}-2-methylpropanamide]
8.74	CC[C@]1(C(=O)N2CCOCC2)CCc2c(sc3ncnc(Nc4cc5cn[nH]c5cc4OC)c23)C1 [Example 63, (7S) {7-Ethyl-4-[(6-methoxy-1H-indazol-5-yl)amino]-5,6,7,8-tetrahydro[1]benzothieno[2,3-d]pyrimidin-7-yl}(morpholin-4-yl)methanone]
7.85	COc1cc2[nH]ncc2cc1Nc1ncnc2sc3c(c12)CCC(N(C)C)C3 (racemic) [Example 36, (RS)—N^4-(6-Methoxy-1H-indazol-5-yl)-N^7,N^7-dimethyl-5,6,7,8-tetrahydro[1]benzothieno[2,3-d]pyrimidine-4,7-diamine]
7.77	O=C(NCC1CCc2c(sc3ncnc(Nc4ccc5[nH]ncc5c4)c23)C1)[C@@H](O)Cc1ccccc1 (mixture of isomers) [Example 14, (2R)-2-Hydroxy-N-{[(7RS)-4-(1H-indazol-5-ylamino)-5,6,7,8-tetrahydro[1]benzothieno[2,3-d]pyrimidin-7-yl]methyl}-3-phenylpropanamide]
8.68	COc1cc2[nH]ncc2cc1Nc1ncnc2sc3c(c12)CCC(CNC(=O)C(C)C)C3 (racemic) [Example 21, (RS)—N-({4-[(6-Methoxy-1H-indazol-5-yl)amino]-5,6,7,8-tetrahydro[1]benzothieno[2,3-d]pyrimidin-7-yl}methyl)-2-methylpropanamide]
8.21	COc1cc2[nH]ncc2cc1Nc1ncnc2sc3c(c12)CCC(CN)C3 (racemic) [Example 19, (RS)-7-(aminomethyl)-N-(6-methoxy-1H-indazol-5-yl)-5,6,7,8-tetrahydro[1]benzothieno[2,3-d]pyrimidin-4-amine]
7.79	CC(C)S(=O)(=O)NCC1CCc2c(sc3ncnc(Nc4ccc5[nH]ncc5c4)c23)C1 (racemic) [Example 11, (RS)—N-{[4-(1H-Indazol-5-ylamino)-5,6,7,8-tetrahydro[1]benzothieno[2,3-d]pyrimidin-7-yl]methyl}propane-2-sulfonamide]
